We go through 5 compounds from patent EP0090736A1, “Steroidal nitroso ureum with oncostatic activity, process for its preparation and its use as a medicine” (Etablissement Public dit: CENTRE NATIONAL DE LA RECHERCHE …, priority 1982, dated 1983).

In general, LD50 refers to the dose at which mortality reaches 50%. A higher LD50 goes with lower toxicity.

One data set has as its system leucémie L1210. Put plainly: Oncostatic activity on L1210 leukemia in mice (survival T/C). As to conditions: for Dose optimale: L1210 leukemia, 10^5 cells i.p., treatment on days 1, 5 and 9, suspension in olive oil. Type of data set: in vivo, souris (DBA2 - C57BL 100). The source says: Le composé selon la présente invention a été étudié sur la leucémie L1210 en comparaison avec d'autres nitrosourées présentant également des propriétés oncostatiques. Il s'agit essentiellement de la BCNU, la CCNU, la Me CCNU, la RFCNU, la RPCNU et la Chlorozotocine. Ces composés, ainsi que le XPCNU, sont bien connus et décrits par exemple dans Biomedicine Express, vol. 23, n° 10 du 10 décembre 1975, pages 410-413.
Pour chaque composé, 10^5 cellules leucémiques ont été inoculées à 80 souris (DBA2 - C57BL 100), par voie intrapéritonéale.
Les traitements ont débuté un jour après la transplantation et ont été poursuivis les cinquième et neuvième jours. Les dérivés devant être testés sont administrés en suspension dans l'huile d'olive à 70 souris. Les doses injectées sont variables, chaque souris étant pesée individuellement. Les 10 souris restantes constituent le groupe témoin et reçoivent, en placébo, des volumes équivalents d'huile d'olive.
Le premier jour, les nitrosourées testées sont administrées, en doses variables, aux souris traitées.
Les cinquième et neuvième jours, les injections sont renouvelées sans signe macroscopique de toxicité.
Pour chaque composé, les activités oncostatiques ont été déterminées pour une dose spécifique et varient en fonction de la quantité administrée. Lorsque l'activité oncostatique est supérieure à 125 et si la différence des groupes témoins et traités à une signification statistique (test de WILCOXON), le composé est considéré comme étant actif à la dose utilisée.
La figure ci-annexée indique en fonction des doses de principe actif appliquées en milligramme par kilogramme le rapport T/C défini comme suit : T/C = moyenne de survie des groupes traités / moyenne de survie des groupes témoins x 100
La mention ∞ indique que plus de 50 % des animaux traités sont guéris.

The nature of a further data set: Acute toxicity (DL50). The class given is in vivo. How it is done:
On a, en outre, indiqué ci-après dans le tableau pour les composés connus et pour le composé selon la présente invention les MEDI, c'est-à-dire les doses médianes, les doses optimums les DL50 et par là l'index thérapeutique de ces composés.
On constate qu'à l'activité déterminée précédemment s'ajoute la dose médiane la plus grande jamais observée et une DL50 aiguë de 700 mg/kg qui est la plus avantageuse parmi toutes les autres nitrosourées, ce qui conduit à l'indice thérapeutique le plus élevé jamais obtenu jusqu'à présent pour ce type de composé oncostatique.

Where [1] appears, read: derived from DL50 and optimal dose on L1210.

On to `O=NN(CCCl)C(=O)N[C@H]1C(O)O[C@H](CO)[C@@H](O)[C@@H]1O` (some centres unmarked) [CZT, Chlorozotocine], for which the Dose optimale in the data set on leucémie L1210 was determined as 15 mg/kg. In “Acute toxicity (DL50)” (acute DL50), this compound came in with a DL50 of 35 mg/kg. In addition, the “Index thérapeutique” value in “Acute toxicity (DL50)” (setting [1]) is listed as 2,33.
For `C[C@]12CC[C@H]3[C@@H](CC=C4C[C@@H](O)CC[C@@]43C)[C@@H]1CC[C@@H]2NC(=O)N(CCCl)N=O` [Composé ex. 1, 17β-(N-2-chloroéthyl-N'-nitrosouréyl)-5-androsten-3β-ol], in the data set on leucémie L1210, the Dose optimale was determined as 125 mg/kg. Also, in the data set with leucémie L1210 (T/C = mean survival treated / mean survival controls x 100, as a function of dose (figure), compared with other nitrosoureas), the “activité oncostatique (T/C)” value is “la meilleure activité oncostatique”. In “Acute toxicity (DL50)” (in vivo, acute DL50), this compound showed a 50% lethal dose (LD50) of 700 mg/kg. Also, the selectivity ratio in the data set “Acute toxicity (DL50)” (mouse, in vivo, derived from DL50 and optimal dose on L1210, read-out: Index thérapeutique) worked out at 5.6.
In the data set on leucémie L1210, `CC1(C)O[C@@H]2[C@@H](COC(=O)c3ccc([N+](=O)[O-])cc3)OC(NC(=O)N(CCCl)N=O)[C@@H]2O1` (some centres unmarked) [RFCNU] registered a Dose optimale of 20 mg/kg. In “Acute toxicity (DL50)” (acute DL50), this compound came in with a DL50 of 90 mg/kg. For the same compound, the “Index thérapeutique” value in the data set “Acute toxicity (DL50)” (setting [1]) is reported as 4,5.
In turn, `CC(=O)O[C@@H]1[C@H](OC(C)=O)COC(NC(=O)N(CCCl)N=O)[C@@H]1OC(C)=O` (some centres unmarked) [RPCNU] registered a Dose optimale in the data set on leucémie L1210 of 15 mg/kg. The DL50 in “Acute toxicity (DL50)” (acute DL50) was found to be 50 mg/kg. For the same compound, the “Index thérapeutique” value in the data set “Acute toxicity (DL50)” (setting [1]) is 3,3.
In the case of `CC(=O)OC1COC(NC(=O)N(CCCl)N=O)C(OC(C)=O)C1OC(C)=O` (centres unmarked) [XPCNU], the Dose optimale in the data set on leucémie L1210 is on record as 15 mg/kg.
